Data taken from patent US20210379057A1, “NUTLIN-3A FOR USE IN TREATING A MYCOBACTERIUM TUBERCULOSIS INFECTION” (Massachusetts Institute of Technology, priority 2018, published 2021).

Assays:
[1] = system: Mycobacterium tuberculosis (Mtb) in primary human CD14+ monocyte-derived macrophages; type: cell-based
[2] = system: p53; type: cell-based, human
[3] = system: Mtb infected macrophages; test: Macrophage death in Mtb infected macrophages; details: Mtb infected macrophages treated with compound

| Compound | Mtb control (bacterial survival, ratio of live GFP+ to total mCherry+ pixels) [1] | GFP+/RFP+ pixel area [1] | expression of p53 [2] | macrophage death [3] |
| --- | --- | --- | --- | --- |
| Cc1ccc2nc(NCCN)c3ncc(C)n3c2c1 [BMS-345541] | worsened bacterial control |  |  |  |
| O=C(Nc1cc(Cl)cc2c1[nH]c1cnccc12)c1cccnc1 [PS-1145] | worsened bacterial control |  |  |  |
| NNC(=O)c1ccncc1 [isoniazid] |  | decrease in the GFP+/RFP+ pixel area |  |  |
| COc1ccc(C2=N[C@@H](c3ccc(Cl)cc3)[C@@H](c3ccc(Cl)cc3)N2C(=O)N2CCNC(=O)C2)c(OC(C)C)c1 [nutlin-3a] | significantly increased Mtb control |  | enhanced expression of p53 | without increasing macrophage death |
